Measured values published in US20090246302A1, “COMPOSITION AND METHOD FOR PROTECTING AGRICULTURAL CROPS AND/OR AGRICULTURAL PRODUCTS” (priority 2008, published 2009).
Where two headings read alike, the source gives them in different places.

Columns and labels:
Assay type in all cases: in vivo
[1] = tested on: C. cephalonica larvae; assay: whole plant or invertebrate; conditions: Corcyra cephalonica, read-out: Mean (%) mortality of insects, laboratory trials; for mortality at 750 mg/kg: dosage of 750 mg/kg; for mortality at 1000 mg/kg: dosage of 1 g/kg
Experimental: (§1) The composition for protecting agricultural products was prepared. A new method was employed using rice bran, as carrier material. 500 g of clean and uncontaminated rice bran collected from the rice mills was completely dehydrated by sun drying. 25 g of the botanical extract of the P. betel in 125 ml of acetone was sprayed uniformly on to the rice bran. Mixed manually and allowed to shade dry for about 20 min.

[2] = tested on: C. chinensis adult; assay: whole plant or invertebrate; conditions: Callosobruchus chinensis, read-out: Mean (%) mortality of insects, laboratory trials; for mortality at 750 mg/kg: dosage of 750 mg/kg; for mortality at 1000 mg/kg: dosage of 1 g/kg
Experimental: as §1

[3] = tested on: S. oryzae; assay: whole plant or invertebrate; conditions: Sitophilus oryzae, laboratory trials, read-out: Mean (%) mortality of insects; for mortality at 750 mg/kg: dosage of 750 mg/kg; for mortality at 1000 mg/kg: dosage of 1 g/kg
Experimental: as §1

[4] = tested on: T. granarium adult; assay: whole plant or invertebrate; conditions: Trogoderma granarium, read-out: Mean (%) mortality of insects, laboratory trials; for mortality at 750 mg/kg: dosage of 750 mg/kg; for mortality at 1000 mg/kg: dosage of 1 g/kg
Experimental: as §1

[5] = tested on: C. cephalonica larvae; conditions: field evaluation, dosage of 25 mg/25 Kg
[6] = tested on: C. chinensis adult; conditions: field evaluation, dosage of 25 mg/25 Kg
[7] = tested on: T. granarium adult; conditions: field evaluation, dosage of 25 mg/25 Kg
[8] = tested on: S. oryzae; conditions: field evaluation, dosage of 25 mg/25 Kg

C=CCc1ccc(O)c(OC)c1 [Eugenol, 4-Allyl-2-methoxyphenol]
mortality at 750 mg/kg ([1]; 1st week): 100% | mortality at 750 mg/kg ([1]; 2nd week): 100% | mortality at 750 mg/kg ([1]; 3rd week): 53.3% | mortality at 750 mg/kg ([1]; 4th week): 13.3% | mortality at 750 mg/kg ([1]; 5th week): 0% | mortality at 750 mg/kg ([1]; 6th week): 0% | mortality at 1000 mg/kg ([1]; 1st week): 100% | mortality at 1000 mg/kg ([1]; 2nd week): 100% | mortality at 1000 mg/kg ([1]; 3rd week): 74% | mortality at 1000 mg/kg ([1]; 4th week): 29% | mortality at 1000 mg/kg ([1]; 5th week): 13.3% | mortality at 1000 mg/kg ([1]; 6th week): 0% | mortality at 750 mg/kg ([2]; 1st week): 100% | mortality at 750 mg/kg ([2]; 2nd week): 100% | mortality at 750 mg/kg ([2]; 3rd week): 58.4% | mortality at 750 mg/kg ([2]; 4th week): 20% | mortality at 750 mg/kg ([2]; 5th week): 0% | mortality at 750 mg/kg ([2]; 6th week): 0% | mortality at 1000 mg/kg ([2]; 1st week): 100% | mortality at 1000 mg/kg ([2]; 2nd week): 100% | mortality at 1000 mg/kg ([2]; 3rd week): 63% | mortality at 1000 mg/kg ([2]; 4th week): 35% | mortality at 1000 mg/kg ([2]; 5th week): 20% | mortality at 1000 mg/kg ([2]; 6th week): 0% | mortality at 750 mg/kg ([3]; 1st week): 100% | mortality at 750 mg/kg ([3]; 2nd week): 100% | mortality at 750 mg/kg ([3]; 3rd week): 40% | mortality at 750 mg/kg ([3]; 4th week): 20% | mortality at 750 mg/kg ([3]; 5th week): 0% | mortality at 750 mg/kg ([3]; 6th week): 0% | mortality at 1000 mg/kg ([3]; 1st week): 100% | mortality at 1000 mg/kg ([3]; 2nd week): 100% | mortality at 1000 mg/kg ([3]; 3rd week): 40% | mortality at 1000 mg/kg ([3]; 4th week): 35% | mortality at 1000 mg/kg ([3]; 5th week): 25% | mortality at 1000 mg/kg ([3]; 6th week): 0% | mortality at 750 mg/kg ([4]; 1st week): 100% | mortality at 750 mg/kg ([4]; 2nd week): 100% | mortality at 750 mg/kg ([4]; 3rd week): 26% | mortality at 750 mg/kg ([4]; 4th week): 13.3% | mortality at 750 mg/kg ([4]; 5th week): 0% | mortality at 750 mg/kg ([4]; 6th week): 0% | mortality at 1000 mg/kg ([4]; 1st week): 100% | mortality at 1000 mg/kg ([4]; 2nd week): 100% | mortality at 1000 mg/kg ([4]; 3rd week): 40% | mortality at 1000 mg/kg ([4]; 4th week): 23% | mortality at 1000 mg/kg ([4]; 5th week): 0% | mortality at 1000 mg/kg ([4]; 6th week): 0% | Mean (%) mortality of insects ([5]; 1st week): 100% | Mean (%) mortality of insects ([5]; 2nd week): 100% | Mean (%) mortality of insects ([5]; 3rd week): 89% | Mean (%) mortality of insects ([5]; 4th week): 66% | Mean (%) mortality of insects ([5]; 5th week): 23% | Mean (%) mortality of insects ([5]; 6th week): 0% | Mean (%) mortality of insects ([5]; 7th week): 0% | Mean (%) mortality of insects ([6]; 1st week): 100% | Mean (%) mortality of insects ([6]; 2nd week): 100% | Mean (%) mortality of insects ([6]; 3rd week): 100% | Mean (%) mortality of insects ([6]; 4th week): 53% | Mean (%) mortality of insects ([6]; 5th week): 39% | Mean (%) mortality of insects ([6]; 6th week): 12.4% | Mean (%) mortality of insects ([6]; 7th week): 0% | Mean (%) mortality of insects ([7]; 1st week): 100% | Mean (%) mortality of insects ([7]; 2nd week): 100% | Mean (%) mortality of insects ([7]; 3rd week): 72% | Mean (%) mortality of insects ([7]; 4th week): 42% | Mean (%) mortality of insects ([7]; 5th week): 20% | Mean (%) mortality of insects ([7]; 6th week): 0% | Mean (%) mortality of insects ([7]; 7th week): 0% | Mean (%) mortality of insects ([8]; 1st week): 100% | Mean (%) mortality of insects ([8]; 2nd week): 100% | Mean (%) mortality of insects ([8]; 3rd week): 85% | Mean (%) mortality of insects ([8]; 4th week): 50% | Mean (%) mortality of insects ([8]; 6th week): 0% | Mean (%) mortality of insects ([8]; 7th week): 0%
